Experiments:
infarcted hearts = conditions: isoproterenol-induced myocardial infarction; cited from earlier work
[1] = system: ischemic-reperfused myocardium; experiment: FASTSPECT hot spot imaging and washout kinetics in ischemic-reperfused rat heart models (IR30, IR90); assay type: in vivo; set-up: half-time value (t1/2) of washout, late phase / half-time value (t1/2) of washout, early phase: unit not given here; conditions: for GLA hot spot size (% LV): 120-min image, mean ± SEM; for GLA hot spot size (% IAR): normalized to ischemic area at risk; for averaged ratio of whole-heart hot spot activity to normal myocardial activity: two hours after injection
Description: Ischemic-Reperfused Rat Heart Models were prepare from Male Sprague-Dawley rats (weight, 250-300 g) that were anesthetized with 1.0%-1.5% isoflurane. The model of myocardial ischemia-reperfusion was developed using know techniques. The rat was prepared by first removing the fur from the chest and neck region with electric clippers. The jugular vein was catheterized through a surgical procedure. An incision was made over the jugular furrow, and blunt and sharp dissection was used to isolate the jugular vein. A PE-10 catheter was advanced through a nick made by micro scissors and then secured by ligatures. After tracheotomy, the rats were ventilated using a volume-controlled Inspira Advanced Safety Ventilator (Harvard Apparatus, Inc.) with a mixture of oxygen and room air. Using each animal's weight, the tidal volume (1.2 mL/100 g) and respiration rate (65-70 breaths/min) were automatically calculated in Safe Range settings (Harvard Apparatus). With a left intercostals thoracotomy incision, the chest was opened at the fourth or fifth intercostal space. The pericardium was opened and the heart was exposed. A small, curved, tapered needle threaded 5-0 silk through the tissue between the pulmonary cone and the left auricular appendage. A ligature was placed around the LCA with a small amount of myocardium. The ligature was pulled tight by passing the suture through a polyethylene tubing and clamping it for coronary occlusion. After the LCA was occluded for 30 or 90 min, 30 min of reperfusion was achieved by releasing the ligature. Hydrochloride lidocaine (5%) was administered via intravenous injection and cardiac surface drop when ventricular fibrillation was induced by LCA occlusion or reflow. During the period of surgery and ischemia-reperfusion treatment, the body temperature of the animal was maintained with a heating pad. The chest of the rat was closed before the animal was imaged with FASTSPECT.
Eighteen rats were divided into 2 groups to receive regional myocardial ischemia-reperfusion treatments. Group 1 animals (IR30, n=12 [IR=ischemia-reperfusion]) were treated by ligating the LCA for 30 min and releasing the ligature for 30 min. The LCA in group 2 animals (IR90, n=6) was ligated for 90 min and then released for 30 min.
Radiopharmaceutical preparation; GLA kits were provided by Molecular Targeting Technologies Inc. The reagent in the vial was a sterile, nonpyrogenic, lyophilized composition of […], GLA, sodium bicarbonate, and hydrochloric acid. A vial of GLA was reconstituted by the addition of 1 mL of ^99mTc as sodium pertechnetate (no <2.59 GBq [no <70 mCi]) in accordance with the manufacturer's instructions. The solution in the vial was allowed to stand at room temperature for 15 min. ^99mTc-GLA radiochemical purity (RCP) was verified by thin-layer liquid chromatography using Gelman instant thin-layer silica gel (ITLC-SG) strips developed in saline and acetone. In the ITLC-SG strip developed by saline, ^99mTc-colloid remained at the origin while ^99mTc-GLA and ^99mTc-pertechnetate migrated near the solvent front. In the strip developed by acetone, ^99mTc-GLA and ^99mTc-colloid remained at the origin while ^99mTc-pertechnetate moved near the solvent front. The RCP of ^99mTc-GLA exceeded 95% for all experimental injections. ^99mTc-GLA was used within 3 h after preparation.
The high-resolution stationary SPECT system, FASTSPECT, was built in the Department of Radiology Research Laboratory at The University of Arizona (as described by references 9-11 in Liu et. al, J. Nucl. Med. (2004), vol. 45, pp 1251-1259). In this system, 24 small modular γ cameras are arranged in 2 circular arrays with a cylindric aperture. […] Twenty-four 1-mm diameter pinholes were drilled in the aperture such that a point source in the center of the field of view (FOV) is simultaneously projected to the center of each camera. The dead space between adjacent cameras at the director surface is 7% of the total area. […]

BT20 tumors = conditions: cited from earlier work
MCF7/D40 tumor xenograft = experiment: FASTSPECT dynamic imaging and tumor washout kinetics, drug-resistant (Pgp positive) xenograft; assay type: in vivo, SCID mice
Description: Tumor cell lines used. MCF7/S: Cells are parental, drug (doxorubicin) sensitive, breast carcinoma cells. MCF7/D40: Cells were generated in vitro by successive culturing parental MCF7 cells in slowly increasing concentrations of doxorubicin with a total selection time of 31 months. Twenty-eight SCID mice were studied. MCF7/S or MCF7/D40 tumors were grown for 10-14 days after subcutaneous injection of 1×10^6 cells into the right thigh. Groups of mice with the xenografted tumors included: (MCF7/S group: MIBI: n=9; GLA: n=8) and (MCF7/D40 group: MIBI: n=6; GLA: n=5).
The dynamic imaging system SPECT consisted of 24 small modular gamma cameras. Each modular camera consists of a 10 cm×10 cm NaI(Tl) scintillation crystal, 4 square (5 cm×5 cm) Hamamatsu photomultiplier tubes. The system included a cylindrical aperture with twenty four 1-mm diameter pinholes drilled in the aperture. A point source in the center of the field of view is projected simultaneously to the center of each camera. Total magnification is 3.5 in a 3.0 cm×3.2 cm×3.2 cm field of view. The spatial resolution of the system is about 1.0 mm, with a sensitivity of 13.3 cps/μCi.
^99mTc-GLA or ^99mTc-MIBI (5-8 mCi, 185-296 MBq) was injected via a jugular vein catheter. Dynamic images were acquired for 2 hours. Twenty-four projections were obtained, one from each camera. Each scintillation event within the camera's NaI crystal was registered as the digitized outputs from the camera's four photomultiplier tubes. The four photomultiplier outputs were compared to a 20-bit look-up table derived from a calibration procedure that involved moving a collimated source across the camera face.
Tumor image reconstruction was performed using 100 iterations of the maximum-likelihood expectation-maximization (ML-EM) algorithm. Using SlicerDicer software, three-dimensional images were computed to provide images in a 33×49×49 voxels format, and generate tomographic transaxial, coronal and sagittal slices with one-pixel thickness (1.0 mm). Regions of interest (ROI) over the tumors were created and applied to the dynamic images for determining time-activity curves. The percent washout rate relative to the peak uptake of the tumors were calculated.

^99mTc-glucarate
uptake in infarcted hearts relative to normal rats (infarcted hearts): 6 times | GLA hot spot size (% LV) ([1]; IR30 (n = 12)): 28.4 ± 2.1 % LV | GLA hot spot size (% IAR) ([1]; IR30 (n = 12)): 58.4 ± 2.7 % IAR | time after injection the infarct remained well defined ([1]; IR30 and IR90 hearts): at least 120 min | hot spot/normal ratio in group 1 (IR30) relative to group 2 (IR90), fold lower ([1]; IR30 vs IR90): 1.94 fold | GLA hot spot size (% LV) ([1]; IR90 (n = 6)): 42.0 ± 2.6 % LV | GLA hot spot size (% IAR) ([1]; IR90 (n = 6)): 75.9 ± 2.7 % IAR | final ratio of hot spot to normal myocardial activity ([1]; group 1 (IR30)): 4.91±0.71 | averaged ratio of whole-heart hot spot activity to normal myocardial activity ([1]; group 1 (IR30)): 4.1±0.3 | final ratio of hot spot to normal myocardial activity ([1]; group 2 (IR90)): 9.53±1.76 | averaged ratio of whole-heart hot spot activity to normal myocardial activity ([1]; group 2 (IR90)): 7.1±1.1 | half-time value (t1/2) of washout, early phase ([1]; hot spot, IR30): 2.4±0.4 | half-time value (t1/2) of washout, late phase ([1]; hot spot, IR30): 216.3±23.8 | fractional retention (% peak) by the end of experiment ([1]; hot spot, IR30 (30-min LCA occlusion, 30-min reperfusion), 2 h): 31.0±1.3 % peak | half-time value (t1/2) of washout, early phase ([1]; hot spot, IR90): 3.8±1.1 | half-time value (t1/2) of washout, late phase ([1]; hot spot, IR90): 511.5±74.2 | fractional retention (% peak) by the end of experiment ([1]; hot spot, IR90 (90-min LCA occlusion, 30-min reperfusion), 2 h): 42.1±4.0 % peak | half-time value (t1/2) of washout, early phase ([1]; normal zone, IR30): 1.6±0.4 | half-time value (t1/2) of washout, late phase ([1]; normal zone, IR30): 66.6±5.5 | fractional retention (% peak) by the end of experiment ([1]; normal zone, IR30, 2 h): 7.5±1.0 % peak | half-time value (t1/2) of washout, early phase ([1]; normal zone, IR90): 2.0±0.2 | half-time value (t1/2) of washout, late phase ([1]; normal zone, IR90): 49.1±2.9 | fractional retention (% peak) by the end of experiment ([1]; normal zone, IR90, 2 h): 6.4±0.9 % peak | tumor uptake compared with 99mTc-DTPA (BT20 tumors; BT20 breast tumors): significantly greater | tumor to non-tumor (shoulder region tissue) ratio (BT20 tumors; twelve hours after intravenous injection): 20.53 | tumor uptake compared with 99mTc-sestamibi (BT20 tumors; xenografted BT20 tumors): significantly higher uptake | two-hour fractional washout (% peak activity) (MCF7/D40 tumor xenograft): 71.9±2.9%

Source: patent US20050152835A1, “Technetium-99M glucarate methods of use for monitoring tissues” (priority 2003, published 2005)
